Data: patent publication US10738028B2, “Spiro three-membered ring, spiro five-membered ring peptide deformylase inhibitor and use thereof in antibacteria and anti-tumor” (priority 2016, dated 2020)

Test system: methicillin-resistant Staphylococcus aureus (MRSA)
Test: MIC, two-fold agar dilution (CLSI), clinical isolates
Format: cell-based
Conditions: Table 8; strain and unit inferred, MRSA
Excerpt: 1. The invention adopts the two-fold agar dilution method recommended by the operating procedure of antimicrobial susceptibility testing set by American Clinical and Laboratory Standards Institute (CLSI) to determine the Minimum Inhibitory Concentration (MIC) of the test samples against the tested strains.

Row | Measured MIC | SMILES
1 | 1 µg/mL | CCCC[C@H](CN(O)C=O)C(=O)N1CC=C[C@H]1C(=O)Nc1ccc(F)c[n+]1[O-] [B, reference compound]
2 | 0.5 µg/mL | C=C1C[C@@H](C(=O)Nc2ccc(F)c[n+]2[O-])N(C(=O)[C@H](CCCC)CN(O)C=O)C1 [C, reference compound]
3 | 0.125 µg/mL | CCCC[C@H](CN(O)C=O)C(=O)N1CC2(CC2)C[C@H]1C(=O)Nc1ccc(F)c[n+]1[O-] [D]

Row | SMILES | Measured MIC
4 | CCCC[C@H](CN(O)C=O)C(=O)N1CCC[C@H]1C(=O)Nc1ccc(F)c[n+]1[O-] [A, reference compound] | 0.5 µg/mL
